Laboratory results reported in ChEMBL document CHEMBL1201862, “PubChem BioAssay data set” (2004).
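Compound exposure: 48 hours, 5 concentrations, 96-well plates. At the GI50, growth is halved.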 Calls of active or inactive are those of the source. Rule as the data show it: active = GI50 up to about 1.1 µM and inactive = higher.

Assays:
Test in all cases: growth of human tumour cells (NCI), 48 h
UACC-62 = test system: UACC-62
A498 = test system: A498
NCI-H460 = test system: NCI-H460
CCRF-CEM = test system: CCRF-CEM
K562 = test system: K562
M14 = test system: M14
Malme-3M = test system: Malme-3M
SF-295 = test system: SF-295
NCI-H522 = test system: NCI-H522
XF498 = test system: XF498
SF-539 = test system: SF-539
SN12C = test system: SN12C
SNB-75 = test system: SNB-75
COLO 205 = test system: COLO 205
HT-29 = test system: HT-29
MOLT-4 = test system: MOLT-4
SR = test system: SR
U-251 = test system: U-251
SK-MEL-2 = test system: SK-MEL-2
OVCAR-3 = test system: OVCAR-3
HCC 2998 = test system: HCC 2998
UO-31 = test system: UO-31
HOP-92 = test system: HOP-92
786-0 = test system: 786-0
SF-268 = test system: SF-268
OVCAR-8 = test system: OVCAR-8
A549 = test system: A549
RXF 393 = test system: RXF 393
HCT-15 = test system: HCT-15
HCT-116 = test system: HCT-116
SW-620 = test system: SW-620
IGROV-1 = test system: IGROV-1
HOP-62 = test system: HOP-62
LOX IMVI = test system: LOX IMVI
SK-MEL-28 = test system: SK-MEL-28
KM-20L2 = test system: KM-20L2
DMS-273 = test system: DMS-273
KM12 = test system: KM12
UACC-257 = test system: UACC-257
EKVX = test system: EKVX
DMS-114 = test system: DMS-114
HOP-18 = test system: HOP-18
TK-10 = test system: TK-10
NCI-H226 = test system: NCI-H226
SK-OV-3 = test system: SK-OV-3
SNB-19 = test system: SNB-19
HL-60 = test system: HL-60
ACHN = test system: ACHN
RPMI-8226 = test system: RPMI-8226
M19-MEL = test system: M19-MEL
NCI-H23 = test system: NCI-H23
LXFL 529 = test system: LXFL 529
OVCAR-4 = test system: OVCAR-4
DLD-1 = test system: DLD-1
SK-MEL-5 = test system: SK-MEL-5
SNB-78 = test system: SNB-78
CAKI-1 = test system: CAKI-1
OVCAR-5 = test system: OVCAR-5
NCI/ADR-RES = test system: NCI/ADR-RES
MCF7 = test system: MCF7

Which results are given for `CC(=O)c1cccc(NCn2nnc3ccccc32)c1`?
GI50 (UACC-62): > 100 µM (inactive); GI50 (A498): > 100 µM (inactive); GI50 (NCI-H460): > 100 µM (inactive); GI50 (CCRF-CEM): > 100 µM (inactive); GI50 (K562): > 100 µM (inactive); GI50 (M14): > 100 µM (inactive); GI50 (Malme-3M): > 100 µM (inactive); GI50 (SF-295): > 100 µM (inactive); GI50 (NCI-H522): > 100 µM (inactive); GI50 (XF498): > 100 µM (inactive); GI50 (SF-539): > 100 µM (inactive); GI50 (SN12C): > 100 µM (inactive); GI50 (SNB-75): > 100 µM (inactive); GI50 (COLO 205): > 100 µM (inactive); GI50 (HT-29): > 100 µM (inactive); GI50 (MOLT-4): > 100 µM (inactive); GI50 (SR): 79.4 µM (inactive); GI50 (U-251): > 100 µM (inactive); GI50 (SK-MEL-2): > 100 µM (inactive); GI50 (OVCAR-3): > 100 µM (inactive); GI50 (HCC 2998): > 100 µM (inactive); GI50 (UO-31): > 100 µM (inactive); GI50 (HOP-92): > 100 µM (inactive); GI50 (786-0): > 100 µM (inactive); GI50 (SF-268): > 100 µM (inactive); GI50 (OVCAR-8): > 100 µM (inactive); GI50 (A549): > 100 µM (inactive); GI50 (RXF 393): > 100 µM (inactive); GI50 (HCT-15): > 100 µM; GI50 (HCT-116): > 100 µM (inactive); GI50 (SW-620): > 100 µM (inactive); GI50 (IGROV-1): > 100 µM (inactive); GI50 (HOP-62): > 100 µM (inactive); GI50 (LOX IMVI): > 100 µM (inactive); GI50 (SK-MEL-28): > 100 µM (inactive); GI50 (KM-20L2): > 100 µM (inactive); GI50 (DMS-273): > 100 µM (inactive); GI50 (KM12): > 100 µM (inactive); GI50 (UACC-257): > 100 µM (inactive); GI50 (EKVX): > 100 µM (inactive); GI50 (DMS-114): > 100 µM (inactive); GI50 (HOP-18): > 100 µM (inactive); GI50 (TK-10): > 100 µM (inactive); GI50 (NCI-H226): > 100 µM (inactive); GI50 (SK-OV-3): > 100 µM (inactive); GI50 (SNB-19): > 100 µM (inactive); GI50 (HL-60): 61 µM (inactive); GI50 (ACHN): > 100 µM (inactive); GI50 (RPMI-8226): 96.8 µM (inactive); GI50 (M19-MEL): > 100 µM (inactive); GI50 (NCI-H23): > 100 µM (inactive); GI50 (LXFL 529): > 100 µM (inactive); GI50 (OVCAR-4): > 100 µM (inactive); GI50 (DLD-1): > 100 µM (inactive)

Which results are given for `N#C/C(=C/c1cccc(Oc2ccccc2)c1)c1ccccc1`?
GI50 (UACC-62): > 100 µM (inactive); GI50 (A498): > 100 µM (inactive); GI50 (NCI-H460): > 100 µM (inactive); GI50 (CCRF-CEM): > 100 µM (inactive); GI50 (SK-MEL-5): > 100 µM (inactive); GI50 (K562): 36.7 µM (inactive); GI50 (M14): > 100 µM (inactive); GI50 (Malme-3M): > 100 µM (inactive); GI50 (SF-295): 4.95 µM (inactive); GI50 (NCI-H522): > 100 µM (inactive); GI50 (XF498): > 100 µM (inactive); GI50 (SF-539): > 100 µM (inactive); GI50 (SN12C): > 100 µM (inactive); GI50 (SNB-75): > 100 µM (inactive); GI50 (COLO 205): 55 µM (inactive); GI50 (HT-29): > 100 µM (inactive); GI50 (MOLT-4): > 100 µM (inactive); GI50 (SR): > 100 µM (inactive); GI50 (U-251): > 100 µM (inactive); GI50 (SK-MEL-2): 66.5 µM (inactive); GI50 (SNB-78): > 100 µM (inactive); GI50 (HCC 2998): > 100 µM (inactive); GI50 (UO-31): > 100 µM (inactive); GI50 (HOP-92): 93.8 µM (inactive); GI50 (786-0): > 100 µM (inactive); GI50 (SF-268): > 100 µM (inactive); GI50 (OVCAR-8): > 100 µM (inactive); GI50 (A549): > 100 µM (inactive); GI50 (HCT-15): > 100 µM; GI50 (HCT-116): > 100 µM (inactive); GI50 (SW-620): > 100 µM (inactive); GI50 (IGROV-1): > 100 µM (inactive); GI50 (LOX IMVI): > 100 µM (inactive); GI50 (SK-MEL-28): > 100 µM (inactive); GI50 (KM12): > 100 µM (inactive); GI50 (UACC-257): > 100 µM (inactive); GI50 (CAKI-1): > 100 µM (inactive); GI50 (EKVX): > 100 µM (inactive); GI50 (DMS-114): 51.8 µM (inactive); GI50 (HOP-18): > 100 µM (inactive); GI50 (TK-10): > 100 µM (inactive); GI50 (NCI-H226): > 100 µM (inactive); GI50 (SK-OV-3): > 100 µM (inactive); GI50 (HL-60): 64.7 µM (inactive); GI50 (ACHN): > 100 µM (inactive); GI50 (RPMI-8226): > 100 µM (inactive); GI50 (M19-MEL): > 100 µM (inactive); GI50 (NCI-H23): > 100 µM (inactive); GI50 (LXFL 529): > 100 µM (inactive); GI50 (OVCAR-4): > 100 µM (inactive); GI50 (DLD-1): > 100 µM (inactive); GI50 (OVCAR-5): 34.6 µM (inactive)

Which results are given for `N/C(=N\O)N/N=C\c1cc([N+](=O)[O-])cc([N+](=O)[O-])c1O`?
GI50 (UACC-62): 1.58 µM (inactive); GI50 (A498): > 23.2 µM (inactive); GI50 (NCI-H460): 2.76 µM (inactive); GI50 (CCRF-CEM): 6.61 µM (inactive); GI50 (SK-MEL-5): 9.42 µM (inactive); GI50 (K562): 5.26 µM (inactive); GI50 (Malme-3M): > 100 µM (inactive); GI50 (SF-295): 4.16 µM (inactive); GI50 (NCI-H522): 12.5 µM (inactive); GI50 (XF498): 40.8 µM (inactive); GI50 (SF-539): 18.4 µM (inactive); GI50 (SN12C): 24.2 µM (inactive); GI50 (COLO 205): 15.3 µM (inactive); GI50 (HT-29): 11.4 µM (inactive); GI50 (MOLT-4): 10.2 µM (inactive); GI50 (U-251): 10.5 µM (inactive); GI50 (SK-MEL-2): > 100 µM (inactive); GI50 (SNB-78): > 100 µM (inactive); GI50 (OVCAR-3): 59.3 µM (inactive); GI50 (HCC 2998): 14.5 µM (inactive); GI50 (UO-31): 4.67 µM (inactive); GI50 (HOP-92): > 100 µM (inactive); GI50 (SF-268): 62.1 µM (inactive); GI50 (OVCAR-8): 6.11 µM (inactive); GI50 (A549): 8.51 µM (inactive); GI50 (RXF 393): > 100 µM (inactive); GI50 (HCT-15): 6.14 µM; GI50 (HCT-116): 4.92 µM (inactive); GI50 (SW-620): 13.9 µM (inactive); GI50 (HOP-62): 4.22 µM (inactive); GI50 (LOX IMVI): 2.99 µM (inactive); GI50 (NCI/ADR-RES): > 26 µM (inactive); GI50 (SK-MEL-28): > 100 µM (inactive); GI50 (KM-20L2): 24.9 µM (inactive); GI50 (DMS-273): 2.72 µM (inactive); GI50 (KM12): 2.94 µM (inactive); GI50 (UACC-257): 98.2 µM (inactive); GI50 (CAKI-1): 5.66 µM (inactive); GI50 (EKVX): > 100 µM (inactive); GI50 (DMS-114): 6.08 µM (inactive); GI50 (MCF7): 19.1 µM (inactive); GI50 (HOP-18): > 100 µM (inactive); GI50 (NCI-H226): 29.4 µM (inactive); GI50 (SK-OV-3): 25.5 µM (inactive); GI50 (SNB-19): > 96.2 µM (inactive); GI50 (HL-60): 3.36 µM (inactive); GI50 (RPMI-8226): 16.5 µM (inactive); GI50 (M19-MEL): 40.6 µM (inactive); GI50 (NCI-H23): 28.8 µM (inactive); GI50 (OVCAR-4): > 96.2 µM (inactive); GI50 (DLD-1): > 37.2 µM (inactive); GI50 (OVCAR-5): > 30.5 µM (inactive)
